# Experimental data reported in patent US20050069887A1, “Dna synthesis promoters dna polymerase-associated factors and utilization thereof” (priority 2001, published 2005).
# Read-outs that look alike come from different tables or passages of the source.
# Columns and labels:
# nPfu DNA polymerase = molecular target: T1, nPfu DNA polymerase (Pyrococcus furiosus, UniProt P61875); experiment: PCR using nPfu DNA polymerase with added salts (Examples 1-5, 1-6); format: biochemical; conditions: for amplification of target DNA (electrophoresis pattern): salt at 4-6 mM of ion equivalent, FIG. 7
# T1 construct: α-Type Enzyme (Native Pfu); purchased STRATAGENE
# T1 sequence (P61875 1-775): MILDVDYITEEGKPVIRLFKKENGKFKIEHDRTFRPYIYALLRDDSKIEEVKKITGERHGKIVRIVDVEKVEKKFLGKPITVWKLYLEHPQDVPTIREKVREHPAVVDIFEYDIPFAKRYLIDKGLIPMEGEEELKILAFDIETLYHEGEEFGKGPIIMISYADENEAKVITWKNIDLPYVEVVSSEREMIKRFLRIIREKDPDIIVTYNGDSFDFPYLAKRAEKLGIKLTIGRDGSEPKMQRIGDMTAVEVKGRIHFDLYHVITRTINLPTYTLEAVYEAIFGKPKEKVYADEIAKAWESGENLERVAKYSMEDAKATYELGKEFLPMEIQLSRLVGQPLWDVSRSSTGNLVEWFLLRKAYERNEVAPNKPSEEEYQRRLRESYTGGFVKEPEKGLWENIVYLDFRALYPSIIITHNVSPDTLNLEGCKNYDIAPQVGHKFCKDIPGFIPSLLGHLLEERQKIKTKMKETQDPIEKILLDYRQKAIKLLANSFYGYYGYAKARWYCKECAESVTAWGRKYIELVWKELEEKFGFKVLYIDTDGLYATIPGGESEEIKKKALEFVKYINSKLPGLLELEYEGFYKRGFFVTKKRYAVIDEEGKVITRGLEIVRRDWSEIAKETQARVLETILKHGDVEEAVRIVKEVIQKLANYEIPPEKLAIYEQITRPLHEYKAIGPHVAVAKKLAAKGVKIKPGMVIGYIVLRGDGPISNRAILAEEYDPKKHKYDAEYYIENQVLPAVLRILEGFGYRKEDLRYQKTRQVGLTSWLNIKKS
# Method: The effect produced by the addition of oxalate ion in PCR was investigated using nPfu polymerase. A PCR buffer (20 mM Tris-HCl (pH 8.75), 10 mM KCl, 10 mM (NH4) 2SO4, 2 mM MgSO4, 0.1% Triton X-100, 100 μg/ml BSA) attached to nPfu (STRATAGENE), 0.2 mM of dNTPs, and 0.3 μM of a pair of primers of SEQ ID NOs:12, and 13 were used. PCR was performed by using 2.5 U nPfu DNA polymerase and 20 ng of genomic DNA derived from human cell line K562 as a template, with the influence on the PCR result caused by varying the concentration of oxalate ion being investigated. PCR was performed by using GeneAmp2400 (PE Applied Biosystems) with the following conditions: 1 preliminary reaction of 94° C. for 2 minutes, and then 35 cycles of 94° C. for 15 seconds, 60° C. for 30 seconds and 68° C. for 8 minutes.
# Salts (potassium chloride, potassium acetate, potassium oxalate, potassium sulfate) were tested for their effectiveness in PCR using nPfu DNA polymerase under the same conditions as Example 1-5.
# KOD-plus DNA polymerase [1] = molecular target: T2, KOD-plus DNA polymerase (Thermococcus kodakarensis, UniProt P77933, DEL407-766/DEL853-1389); format: biochemical, Thermococcus kodakaraensis KOD1; conditions: for amplification of target DNA (electrophoresis pattern): salt at 6 mM of ion equivalent, FIG. 9; for effect on extra bands: FIG. 10
# T2 construct: purchased Toyobo
# T2 sequence (P77933 other isoform, or with tags, fused parts or gaps DEL407-766/DEL853-1389): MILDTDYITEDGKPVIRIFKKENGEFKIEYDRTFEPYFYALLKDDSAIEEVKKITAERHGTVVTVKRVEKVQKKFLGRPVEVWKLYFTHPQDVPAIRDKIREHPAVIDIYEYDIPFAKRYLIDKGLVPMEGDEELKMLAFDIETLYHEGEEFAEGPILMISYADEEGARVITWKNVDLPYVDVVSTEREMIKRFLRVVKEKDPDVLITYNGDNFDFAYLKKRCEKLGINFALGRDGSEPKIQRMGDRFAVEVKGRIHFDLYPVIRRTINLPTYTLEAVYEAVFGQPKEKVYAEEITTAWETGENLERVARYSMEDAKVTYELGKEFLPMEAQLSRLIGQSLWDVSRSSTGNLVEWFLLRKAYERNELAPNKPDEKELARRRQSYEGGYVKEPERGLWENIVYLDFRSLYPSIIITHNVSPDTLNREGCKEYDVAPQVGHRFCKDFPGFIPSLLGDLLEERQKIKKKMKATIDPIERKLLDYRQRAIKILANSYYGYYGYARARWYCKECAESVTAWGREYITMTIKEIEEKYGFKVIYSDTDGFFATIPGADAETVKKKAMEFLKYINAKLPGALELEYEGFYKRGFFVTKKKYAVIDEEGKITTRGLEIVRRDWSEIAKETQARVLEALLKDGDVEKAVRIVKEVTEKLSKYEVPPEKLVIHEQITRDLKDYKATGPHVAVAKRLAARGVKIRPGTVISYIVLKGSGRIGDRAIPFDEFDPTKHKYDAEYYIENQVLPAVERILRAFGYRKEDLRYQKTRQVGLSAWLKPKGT
# EX-Taq DNA polymerase = experiment: PCR using EX-Taq DNA polymerase with added salts (Examples 1-1 to 1-3); format: biochemical
# Method: The effect produced by the addition of oxalate ions was investigated in the PCR using EX-Taq DNA polymerase. A PCR buffer supplied with EX-Taq (TAKARA) and 0.3 μM of a pair of primers of SEQ ID Nos:8 and 9 and 0.2 mM dNTPs were used. PCR was performed by using 1.0 U EX-Taq DNA polymerase and 20 ng of genomic DNA derived from human cell line K562 as a template, with the influence on the PCR result caused by varying the concentration of added oxalate ion being investigated. The PCR conditions were as follows: 1 preliminary reaction of 94° C. for 2 minutes, and then 35 cycles of 94° C. for 15 seconds, 60° C. for 30 seconds and 68° C. for 8.5 minutes. This PCR amplification was performed by using GeneAmp2400 (PE Applied Biosystems).
# Salts (potassium chloride, potassium acetate, potassium oxalate, sodium oxalate, potassium sulfate) were investigated for their effectiveness in PCR using EX-Taq DNA polymerase under the same conditions as Example 1. Each salts was used in an amount of 4 to 6 mM of ion equivalent
# KOD-plus DNA polymerase [2] = molecular target: T2, KOD-plus DNA polymerase; format: biochemical, Thermococcus kodakaraensis KOD1
# Method: The effect produced by the addition of oxalate ion to a hot start enzyme was investigated using a hot start enzyme KOD-plus DNA polymerase containing KOD α-type enzyme) and two kinds of KOD antibodies. The PCR buffer supplied with KOD-plus (manufactured by Toyobo), 0.2 mM dNTPs and 0.3 μM of a primer pair of SEQ ID Nos:8 and 9 were used. PCR was performed using 2.5 U KOD-plus DNA polymerase and 20 ng of Genomic DNA derived from human cell line K562 as a template to investigate the influence of varying the concentration of oxalate ion added on the PCR results. The PCR conditions were as follows: 1 preliminary reaction of 94° C. for 2 minutes, and then 35 cycles of 94° C. for 15 seconds, 60° C. for 30 seconds and 68° C. for 8.5 minutes. The PCR was performed using GeneAmp2400 (PE Applied Biosystems).
# Taq DNA polymerase = molecular target: T3, Taq DNA polymerase (Thermus aquaticus, UniProt P19821); experiment: PCR using Taq DNA polymerase with added oxalate ion (Example 1-4); format: biochemical; conditions: for PCR amplification of 4.5-kb DNA of myelin oligodendrocyte glycoprotein: FIG. 5; for PCR amplification of 3.6-kb DNA of β-globin: FIG. 4
# T3 construct: purchased TOYOBO CO., LTD
# T3 sequence (P19821 whole entry): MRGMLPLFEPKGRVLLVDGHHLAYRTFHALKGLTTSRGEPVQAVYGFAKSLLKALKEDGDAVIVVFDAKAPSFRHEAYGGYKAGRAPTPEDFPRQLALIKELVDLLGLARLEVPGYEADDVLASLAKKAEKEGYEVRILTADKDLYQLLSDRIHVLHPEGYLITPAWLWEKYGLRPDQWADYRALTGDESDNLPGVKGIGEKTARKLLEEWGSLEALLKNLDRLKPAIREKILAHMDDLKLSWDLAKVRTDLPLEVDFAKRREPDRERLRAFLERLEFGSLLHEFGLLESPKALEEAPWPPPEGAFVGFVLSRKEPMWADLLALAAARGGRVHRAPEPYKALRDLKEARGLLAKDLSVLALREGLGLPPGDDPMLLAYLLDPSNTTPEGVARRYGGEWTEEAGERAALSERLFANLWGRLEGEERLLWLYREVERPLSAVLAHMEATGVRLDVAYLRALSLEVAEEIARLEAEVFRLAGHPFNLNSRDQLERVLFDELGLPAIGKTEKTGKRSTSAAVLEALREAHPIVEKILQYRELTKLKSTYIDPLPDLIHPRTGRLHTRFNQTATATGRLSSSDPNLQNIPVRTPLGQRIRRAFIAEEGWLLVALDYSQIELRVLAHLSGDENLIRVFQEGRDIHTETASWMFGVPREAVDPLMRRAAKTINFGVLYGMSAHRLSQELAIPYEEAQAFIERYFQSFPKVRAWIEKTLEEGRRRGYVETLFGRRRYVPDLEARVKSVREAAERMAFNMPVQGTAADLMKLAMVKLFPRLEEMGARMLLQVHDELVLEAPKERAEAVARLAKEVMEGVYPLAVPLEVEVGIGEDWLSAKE
# Method: The effect produced by the addition of oxalate ions was investigated in PCR using Taq DNA polymerase. A PCR buffer (10 mM Tris-HCl (pH 8.3), 50 mM KCl, 1.5 mM MgCl2) attached to Taq (TOYOBO CO., LTD.), 0.2 mM dNTPs and 0.3 μM of a primer pair were used. A pair of primers of SEQ ID Nos:10 and 11 was used for the PCR amplification of a 3.6-kb DNA of β-globin cluster (the electrophoresis pattern of its PCR product is shown in FIG. 4), while a pair of primers of SEQ ID Nos:12 and 13 was used for the PCR amplification of a 4.5-kb DNA of myelin oligodendrocyte glycoprotein (the electrophoresis pattern of its PCR product is shown in FIG. 5). The influence of varying the concentration of oxalate ions added on the PCR results was investigated using 2.5 U Taq DNA polymerase and 20 ng of Genomic DNA derived from cultured human cell K562 as a template. The PCR conditions were as follows: 94° C. for 2 minutes as 1 preliminary reaction, and then 30 cycles of 94° C. for 15 seconds, 60° C. for 30 seconds and 68° C. for 8 minutes. The PCR amplification was performed by using GeneAmp 2400 (PE Applied Biosystems).
# [3] = K562 genomic DNA template, FIG. 1
smiles,measurement,setting,value
"CC(=O)[O-].[K+] [potassium acetate, reference compound]",amplification of target DNA (electrophoresis pattern),nPfu DNA polymerase,amplification of the target DNA was not observed
same,amplification of target DNA (electrophoresis pattern),KOD-plus DNA polymerase [1],Amplification of the target DNA was not observed
"[Cl-].[K+] [potassium chloride, reference compound]",amplification of target DNA (electrophoresis pattern),nPfu DNA polymerase,amplification of the target DNA was not observed
same,amplification of target DNA (electrophoresis pattern),KOD-plus DNA polymerase [1],Amplification of the target DNA was not observed
O=C([O-])/C=C\C(=O)[O-].[Na+].[Na+] [sodium maleate],effect on extra bands,KOD-plus DNA polymerase [1]; 4 mM salt,extra bands tended to decrease
same,effect on extra bands,KOD-plus DNA polymerase [1]; 10 mM salt,most of the extra bands disappeared
"O=S(=O)([O-])[O-].[K+].[K+] [potassium sulfate, reference compound]",amplification of target DNA (electrophoresis pattern),nPfu DNA polymerase,amplification of the target DNA was not observed
same,amplification of target DNA (electrophoresis pattern),KOD-plus DNA polymerase [1],Amplification of the target DNA was not observed
O=C([O-])CC(=O)[O-].[Na+].[Na+] [sodium malonate],effect on extra bands,KOD-plus DNA polymerase [1]; 2 mM salt,the extra bands tended to decrease
same,effect on extra bands,KOD-plus DNA polymerase [1]; 6 mM salt,most of the extra bands disappeared
O=C(O)C(=O)O [oxalate ion],concentration range of oxalate ion within which the effect of the addition is found,EX-Taq DNA polymerase,up to 4 mM
same,oxalate ion amount at which amplification of the target DNA was confirmed,EX-Taq DNA polymerase; [3],1 to 4 mM
same,oxalate ion concentration at which the amount of amplification was the highest,EX-Taq DNA polymerase; [3],2 to 3 mM
same,concentration range within which the effect of the addition of oxalate ion is found,nPfu DNA polymerase,up to 5 mM
same,oxalate ion concentration at which amplification of the target DNA was observed,nPfu DNA polymerase; FIG. 6,2 to 5 mM
same,concentration range within which the effect of the addition of oxalate ion is found,KOD-plus DNA polymerase [2],up to 5 mM
same,concentration range within which the effect of the addition of oxalate ion is found,Taq DNA polymerase,up to 5 mM
same,PCR amplification of 4.5-kb DNA of myelin oligodendrocyte glycoprotein,Taq DNA polymerase; 1 mM oxalate ion,amplification of the target DNA was observed together with a smear
same,PCR amplification of 3.6-kb DNA of β-globin,Taq DNA polymerase; 2 mM oxalate ion,amplification of the target sequence was observed together with a smear
same,PCR amplification of 4.5-kb DNA of myelin oligodendrocyte glycoprotein,Taq DNA polymerase; 2 mM oxalate ion,no smear was observed
same,PCR amplification of 3.6-kb DNA of β-globin,Taq DNA polymerase; 4 mM oxalate ion,no smear was observed
same,oxalate ion concentration giving a discrete amplification band,Taq DNA polymerase; 3.6-kb DNA of β-globin,4 to 5 mM
same,oxalate ion concentration giving a discrete amplification band,Taq DNA polymerase; 4.5-kb DNA of myelin oligodendrocyte glycoprotein,2 to 5 mM
O=C([O-])C(=O)[O-].[Na+].[Na+] [sodium oxalate],amplification of target DNA (electrophoresis pattern),"EX-Taq DNA polymerase; carboxylate salts, FIG. 3",amplification of the target DNA was observed
same,amplification of target DNA (electrophoresis pattern),"EX-Taq DNA polymerase; salt at 4 to 6 mM of ion equivalent, FIG. 2",Amplification was observed
same,amplification of target DNA (electrophoresis pattern),KOD-plus DNA polymerase [1],Amplification was observed
"O=C([O-])CCC(=O)[O-].[K+].[K+] [potassium succinate, reference compound]",amplification of target DNA (electrophoresis pattern),"EX-Taq DNA polymerase; carboxylate salts, FIG. 3",A similar effect to that produced by oxalate salts was not observed
"O=C[O-].[K+] [potassium formate, reference compound]",amplification of target DNA (electrophoresis pattern),"EX-Taq DNA polymerase; carboxylate salts, FIG. 3",A similar effect to that produced by oxalate salts was not observed
